# Source: BindingDB's records for PubMed 40188441 (Shanghai Jiao Tong University)
# Assay: Inhibition of human STING in human THP-1 Dual cells assessed as secreted luciferase reporter of interferon stimulated gene (ISG) measured after 24 hrs incubation by QUANTI-Luc detection assay
row,IC50,Compound
1,2120 nM,O=C(Nc1c[nH]c2ccccc12)N1CCc2[nH]c3c(Cl)c(Cl)ccc3c2C1
2,2050 nM,O=C(Nc1c[nH]c2ccccc12)N1CCc2[nH]c3c(Cl)c(Cl)cc(Br)c3c2C1
3,> 10000 nM,Cn1ccc(-c2cc(Cl)c(Cl)c3[nH]c4c(c23)CN(C(=O)Nc2c[nH]c3ccccc23)CC4)n1
4,> 10000 nM,Cc1ccc2c(NC(=O)N3CCc4[nH]c5c(Cl)c(Cl)ccc5c4C3)c[nH]c2c1
5,> 10000 nM,COc1ccc2c(NC(=O)N3CCc4[nH]c5c(Cl)c(Cl)ccc5c4C3)c[nH]c2c1
6,3180 nM,O=C(Nc1c[nH]c2cc(F)ccc12)N1CCc2[nH]c3c(Cl)c(Cl)ccc3c2C1
7,3310 nM,O=C(Nc1c[nH]c2cc(Cl)ccc12)N1CCc2[nH]c3c(Cl)c(Cl)ccc3c2C1
8,2380 nM,COc1ccc2[nH]cc(NC(=O)N3CCc4[nH]c5c(Cl)c(Cl)ccc5c4C3)c2c1
9,2400 nM,O=C(Nc1c[nH]c2ccc(F)cc12)N1CCc2[nH]c3c(Cl)c(Cl)ccc3c2C1
10,791 nM,O=C(Nc1c[nH]c2ccc(Br)cc12)N1CCc2[nH]c3c(Cl)c(Cl)ccc3c2C1
11,382 nM,O=C(Nc1c[nH]c2ccc(F)cc12)N1CCc2oc3c(Cl)c(Cl)ccc3c2C1
12,353 nM,O=C(Nc1c[nH]c2ccc(Br)cc12)N1CCc2oc3c(Cl)c(Cl)ccc3c2C1
13,18 nM,O=C(Nc1ccc2c(c1)OC(F)(F)O2)Nc1c[nH]c2ccccc12
14,1830 nM,O=C(Nc1cccc2c1OC(F)(F)O2)Nc1c[nH]c2ccccc12
15,110 nM,O=C(Nc1ccc2c(c1)OC(F)(F)C(F)(F)O2)Nc1c[nH]c2ccc(F)cc12
16,3470 nM,O=C(Nc1ccc2c(c1)OCO2)Nc1c[nH]c2ccc(F)cc12
17,1350 nM,O=C(Nc1ccc2c(c1)OCCO2)Nc1c[nH]c2ccc(F)cc12
18,> 10000 nM,O=C(Nc1ccc2c(c1)COB2O)Nc1c[nH]c2ccc(F)cc12
19,> 10000 nM,O=C(Nc1ccc2c(c1)CCN2)Nc1c[nH]c2ccc(F)cc12
20,1220 nM,O=C(Nc1ccc2c(c1)NCC2)Nc1c[nH]c2ccc(F)cc12
21,1180 nM,CN1CCc2cc(NC(=O)Nc3c[nH]c4ccc(F)cc34)ccc21

row,IC50,Compound
1,71 nM,O=C(Nc1ccc2c(c1)OC(F)(F)O2)Nc1c[nH]c2ccc(Br)cc12
2,66 nM,O=C(Nc1ccc2c(c1)OC(F)(F)O2)Nc1c[nH]c2ccc(Cl)cc12
3,> 10000 nM,C=CC(=O)Nc1ccc2[nH]cc(NC(=O)Nc3ccc4c(c3)OC(F)(F)O4)c2c1
4,> 10000 nM,CCOP(=O)(Cc1ccc2[nH]cc(NC(=O)Nc3ccc4c(c3)OC(F)(F)O4)c2c1)OCC
5,119 nM,C#Cc1ccc2[nH]cc(NC(=O)Nc3ccc4c(c3)OC(F)(F)O4)c2c1
6,> 10000 nM,O=C(Nc1ccc2c(c1)OC(F)(F)O2)Nc1c[nH]c2ccc(C#CC(F)(F)F)cc12
7,258 nM,O=C(Nc1ccc2c(c1)OC(F)(F)O2)Nc1c[nH]c2ccc(C#CC3CC3)cc12
8,489 nM,CC(=O)OCC#Cc1ccc2[nH]cc(NC(=O)Nc3ccc4c(c3)OC(F)(F)O4)c2c1
9,2190 nM,O=C(Nc1ccc2c(c1)OC(F)(F)O2)Nc1c[nH]c2ccc(C#CCO)cc12
10,264 nM,Cn1cc(C#Cc2ccc3[nH]cc(NC(=O)Nc4ccc5c(c4)OC(F)(F)O5)c3c2)cn1
11,3650 nM,COC(=O)/C=C/c1ccc2[nH]cc(NC(=O)Nc3ccc4c(c3)OC(F)(F)O4)c2c1
12,> 10000 nM,N#C/C=C/c1ccc2[nH]cc(NC(=O)Nc3ccc4c(c3)OC(F)(F)O4)c2c1
13,116 nM,N#CC/C=C/c1ccc2[nH]cc(NC(=O)Nc3ccc4c(c3)OC(F)(F)O4)c2c1
14,2490 nM,COCCOCCn1cc(-c2ccc3[nH]cc(NC(=O)Nc4ccc5c(c4)OC(F)(F)O5)c3c2)nn1
15,> 10000 nM,O=C(Nc1ccc2c(c1)OC(F)(F)O2)Nc1c[nH]c2ccc(-c3cn(CCN4CCOCC4)nn3)cc12
16,> 10000 nM,O=C(Nc1ccc2c(c1)OC(F)(F)O2)Nc1c[nH]c2ccc(-c3cn(CCO)nn3)cc12
17,192 nM,Fc1ccc2[nH]cc(Nc3nc4cc5c(cc4[nH]3)OC(F)(F)O5)c2c1
18,269 nM,Fc1ccc2[nH]cc(Nc3nc4cc(C(F)(C(F)(F)F)C(F)(F)F)ccc4[nH]3)c2c1
19,43 nM,Fc1ccc2[nH]cc(Nc3nc4cc(C5CCCC5)ccc4[nH]3)c2c1
20,216 nM,Fc1cc2[nH]cc(Nc3nc4cc(C5CCCC5)ccc4[nH]3)c2cc1F
21,44 nM,Fc1cnc2[nH]cc(Nc3nc4cc(C5CCCC5)ccc4[nH]3)c2c1
